Source: patent US4670258A, “Storable prepackaged aqueous solutions of vancomycin” (Vanderbilt University, priority 1984, dated 1987)
Like-named read-outs stand apart in the source and are kept apart here.

Experiments:
[1] = Peptide binding to vancomycin studied by UV spectroscopy
Source text: when studied by UV spectroscopy. The binding constants for the other

physchem = settings: water, pH 4.15
Description: (§1) Solutions containing vancomycin (1 mmol) and peptide (either 1 mmol or 2 mmol) in a total volume of 2 ml (pH 4.1-4.2) were placed in screw-capped test tubes and heated at 80° C. for 17 hr. At the end of the reaction time aliquots of the reaction mixture were analyzed for vancomycin and its degradation products, CDP-I-Major (CDP-I-M) and CDP-I-minor (CDP-I-m), by HPLC (Harris, Kopecka and Harris (1983), J. Am. Chem. Soc. 105: 6915-6922).

Staphylococcus = settings: cited from earlier work
[2] = no additive, HPLC
Description: as §1

[3] = cited from earlier work

Description for B. subtilis: The protection of antibiotic activity of vancomycin by binding peptide is illustrated by the following experiment. Solutions containing vancomycin (2 mmol) and peptide 4 mmol) in a total volume of 1 ml (pH 4.40) were placed in screw-capped test tubes and heated at 80° C. for 66 h. The residual antibiotic activity was measured by the disc diffusion technique with B. subtilis as the test organism (Coller and Gralnick (1977), J. Clinical Investigation 60: 302-312; Crossley, Rotschafer, Chern, Mead and Zaske (1980), Antimicrob. Agents and Chemother. 17: 654-657).
Vancomycin-peptide solutions were prepared as in the previous experiments and steam sterilized (15 psi) for 30 min. Antibiotic activity was measured as in Example II.

Row | measurable binding to vancomycin [1] | SMILES | remaining at 17 h (physchem) [%] | effectiveness against Staphylococcus (Staphylococcus) | % Activity (unheated) (B. subtilis; Table II, disc diffusion) [%] | % Activity (unheated) (B. subtilis; Table III, disc diffusion) [%] | % Activity (heated) (B. subtilis; heated 80° C. for 66 h, pH 4.40, disc diffusion) [%] | % Activity (steam sterilized) (B. subtilis; steam sterilized (15 psi) for 30 min, disc diffusion) [%] | % Vancomycin remaining (unheated control) [2] [%] | storage stability in aqueous solution, refrigerated ([3]; refrigeration temperatures (viz. 5° C.)) | potency and pH change in aqueous solution on storage ([3]; room temperature or prolonged storage under refrigeration)
1 | does not exhibit any measurable binding | CC(=O)N[C@H](C)C(=O)NCCC(=O)O [Ac--D-ala-β-ala] |  |  |  |  |  |  |  |  | 
2 |  | CN[C@H](CC(C)C)C(=O)N[C@H]1C(=O)N[C@@H](CC(N)=O)C(=O)N[C@H]2C(=O)N[C@H]3C(=O)N[C@H](C(=O)N[C@H](C(=O)O)c4cc(O)cc(O)c4-c4cc3ccc4O)[C@H](O)c3ccc(c(Cl)c3)Oc3cc2cc(c3O[C@@H]2O[C@H](CO)[C@@H](O)[C@H](O)[C@H]2O[C@H]2C[C@](C)(N)[C@H](O)[C@H](C)O2)Oc2ccc(cc2Cl)[C@H]1O [Vancomycin] | 49 | particularly effective | 100 | 100 | 25 | 58 | 92 | can be stored for several weeks | potency is lost and autogenous pH changes occur
